# Source: US20250163522A1, “METHODS FOR PRESERVING HEALTHY INTESTINAL MICROBIOME DURING GROWTH PROMOTER ADMINSTRATION” (BIOMEDIT, LLC, priority 2022, published 2025)
# Like-named read-outs stand apart in the source and are kept apart here.
# Assay type: in vivo, chickens (Gallus gallus)
# Method: 15 cecal samples and 10 serum samples from day 35 birds were sent to metabolon (Morrisville, NC) for untargeted metabolomics analysis. These numbers of samples were sent for both the control and narasin treatments. Serum samples were selected sequentially, that is, without knowledge of bird performance or results from other analyses.
# Samples were prepared using the automated MicroLab STAR® system from Hamilton Company. Samples were extracted with methanol under vigorous shaking for 2 min (Glen Mills GenoGrinder 2000) to precipitate protein and dissociate small molecules bound to protein or trapped in the precipitated protein matrix, followed by centrifugation to recover chemically diverse metabolites. The resulting extract was divided into four fractions: two for analysis by two separate reverse phase (RP)/Ultrahigh Performance Liquid Chromatography-Tandem Mass Spectroscopy (UPLC-MS/MS) methods using positive ion mode electrospray ionization (ESI), one for analysis by RP/UPLC-MS/MS using negative ion mode ESI, and one for analysis by HILIC/UPLC-MS/MS using negative ion mode ESI. Samples were placed briefly on a TurboVap® (Zymark) to remove the organic solvent. The sample extracts were stored overnight under nitrogen before preparation for analysis.
# The sample extract was dried and reconstituted in solvents compatible to each of the four methods. One aliquot was analyzed using acidic positive ion conditions, chromatographically optimized for more hydrophilic compounds. In this method, the extract is gradient-eluted from a C18 column (Waters UPLC BEH C18-2.1×100 mm, 1.7 μm) using water and methanol, containing 0.05% perfluoropentanoic acid (PFPA) and 0.1% formic acid (FA). A second aliquot was also analyzed using acidic positive ion conditions but was chromatographically optimized for more hydrophobic compounds. In this method, the extract is gradient eluted from the C18 column using methanol, acetonitrile, water, 0.05% PFPA and 0.01% FA, and is operated at an overall higher organic content. A third aliquot was analyzed using basic negative ion optimized conditions using a separate dedicated C18 column. The basic extracts were gradient-eluted from the column using methanol and water, and with 6.5 mM Ammonium Bicarbonate at pH 8. The fourth aliquot was analyzed via negative ionization following elution from a HILIC column (Waters UPLC BEH Amide 2.1×150 mm, 1.7 μm) using a gradient consisting of water and acetonitrile with 10 mM Ammonium Formate, pH 10.8. The MS analysis alternates between MS and data-dependent MS^n scans using dynamic exclusion. The scan range varies slightly between methods, but covers approximately 70-1000 m/z.
# UPLC-MS/MS was done using a Waters ACQUITY ultra-performance liquid chromatography (UPLC) and a Thermo Scientific Q-Exactive high resolution/accurate mass spectrometer interfaced with a heated electrospray ionization (HESI-II) source and Orbitrap mass analyzer operated at 35,000 mass resolution.
# Raw data was extracted, peak-identified, and QC processed using Metabolon's hardware and software. Compounds were identified by comparison to library entries of purified standards. The library, based on authenticated standards, contains the retention time/index (RI), mass to charge ratio (m/z), and chromatographic data (including MS/MS spectral data) on all molecules present in the library. Biochemical identifications were based on three criteria: retention index within a narrow RI window of the proposed identification, accurate mass match to the library+/−10 ppm, and the MS/MS forward and reverse scores. MS/MS scores are based on a comparison of the ions present in the experimental spectrum to ions present in the library entry spectrum.
# Peaks were quantified as area-under-the-curve (AUC) detector ion counts. For each identified metabolite, AUC values were rescaled by dividing by the median AUC value across all samples. […]
# [1] = cecum, day 35, corrected p-value<0.05
smiles,measurement,setting,value
CC[C@@H](C(=O)O)[C@@H]1O[C@@H]([C@@H](C)[C@H](O)[C@H](C)C(=O)[C@H](CC)[C@H]2O[C@]3(C=C[C@@H](O)[C@]4(CC[C@@](C)([C@H]5CC[C@](O)(CC)[C@H](C)O5)O4)O3)[C@H](C)C[C@@H]2C)[C@@H](C)C[C@@H]1C [narasin],spermidine concentration,"cecum and serum, day 35",lower concentration
same,amino acid concentrations compared to controls,"cecum, day 35",all 20 amino acids were found at lower concentrations
same,riboflavin concentration,"cecum, day 35",higher concentration
same,number of metabolites at higher abundance compared to controls,[1],49
same,number of metabolites at lower abundance compared to controls,[1],78
same,number of metabolites at higher abundance compared to controls,"serum, day 35",4
same,number of metabolites at lower abundance compared to controls,"serum, day 35",93
same,urea level compared to controls,"serum, day 35",lower levels
